{"source": "paper PMC9501810", "about": "“Bitter Peptides YFYPEL, [sequence], and [sequence], Released during Gastric Digestion of Casein, Stimulate Mechanisms of Gastric Acid Secretion via Bitter Taste Receptors TAS2R16 and TAS2R38” (Journal of Agricultural and Food Chemistry, 2022)", "format_in_all_cases": "cell-based, human", "key": {"[1]": {"system": "TAS2R16", "test": "RT-qPCR gene expression of TAS2R16 in HGT-1 cells", "conditions": "VAPFPEVF 17.5 µM, YFYPEL 0.03 µM, YQEPVLGPVRGPFPIIV 0.4 µM, normalized to PPIA and GAPDH and untreated cells, mean, n = 3–5", "experimental": "For mRNA expression analysis, 800,000 cells were seeded in a T25 cell culture flask (25 cm^2) 1 day before the experiment. After incubation with 17.5 μM […], 0.03 μM YFYPEL, or 0.4 μM […] for 15, 30, 60, and 120 min, RNA was isolated using the peqGOLD RNA Kit (VWR Peqlab, USA) following the manufacturer’s protocol. Determination of RNA concentration (A260/A280 between 2.03 and 2.09) was performed on a NanoDrop One^c (Thermo Fisher Scientific Inc., USA). RNA integrity number (RIN 9.9–10.0, version 2.6, assay class Eukaryote Total RNA Nano) was analyzed using a 2100 Bioanalyzer (Agilent Technologies, USA). Removal of gDNA and synthesis of cDNA were performed using the iScript gDNA Clear cDNA Synthesis Kit (BioRad, Feldkirchen, Germany) following the manufacturer’s protocol. Real-time-qPCR (RT-qPCR) was performed with 50 ng cDNA amplified with SsoAdvanced Universal SYBR Green Supermix (Bio-Rad Laboratories, Inc., USA). The sequences of the forward and reverse primers of the 25 TAS2Rs were taken from Liszt et al.([13]) (Supporting Information Table-SI 3). Verified primers for the TAS1Rs (TAS1R1: qHsaCID0013443; TAS1R2: qHsaCID0016106; TAS1R3: qHsaCED0002321) and for MAPK1 (qHsaCEP0050000) were obtained from Bio-Rad Laboratories. PPIA[37] and GAPDH[38] were used as reference genes. The effects of the peptides on gene expression were analyzed in comparison to untreated control cells. […]"}, "[2]": {"system": "TAS2R8", "test": "RT-qPCR gene expression of TAS2R8 in HGT-1 cells", "conditions": "VAPFPEVF 17.5 µM, YFYPEL 0.03 µM, YQEPVLGPVRGPFPIIV 0.4 µM, normalized to PPIA and GAPDH and untreated cells, mean, n = 3–5", "experimental": "(§1) For mRNA expression analysis, 800,000 cells were seeded in a T25 cell culture flask (25 cm^2) 1 day before the experiment. After incubation with 17.5 μM […], 0.03 μM YFYPEL, or 0.4 μM […] for 15, 30, 60, and 120 min, RNA was isolated using the peqGOLD RNA Kit (VWR Peqlab, USA) following the manufacturer’s protocol. Determination of RNA concentration (A260/A280 between 2.03 and 2.09) was performed on a NanoDrop One^c (Thermo Fisher Scientific Inc., USA). RNA integrity number (RIN 9.9–10.0, version 2.6, assay class Eukaryote Total RNA Nano) was analyzed using a 2100 Bioanalyzer (Agilent Technologies, USA). Removal of gDNA and synthesis of cDNA were performed using the iScript gDNA Clear cDNA Synthesis Kit (BioRad, Feldkirchen, Germany) following the manufacturer’s protocol. Real-time-qPCR (RT-qPCR) was performed with 50 ng cDNA amplified with SsoAdvanced Universal SYBR Green Supermix (Bio-Rad Laboratories, Inc., USA). The sequences of the forward and reverse primers of the 25 TAS2Rs were taken from Liszt et al.([13]) (Supporting Information Table-SI 3). Verified primers for the TAS1Rs (TAS1R1: qHsaCID0013443; TAS1R2: qHsaCID0016106; TAS1R3: qHsaCED0002321) and for MAPK1 (qHsaCEP0050000) were obtained from Bio-Rad Laboratories. PPIA[37] and GAPDH[38] were used as reference genes. The effects of the peptides on gene expression were analyzed in comparison to untreated control cells."}, "[3]": {"system": "TAS2R19", "test": "RT-qPCR gene expression of TAS2R19 in HGT-1 cells", "conditions": "VAPFPEVF 17.5 µM, YFYPEL 0.03 µM, YQEPVLGPVRGPFPIIV 0.4 µM, normalized to PPIA and GAPDH and untreated cells, mean, n = 3–5", "experimental": "as §1"}, "[4]": {"system": "TAS2R30", "test": "RT-qPCR gene expression of TAS2R30 in HGT-1 cells", "conditions": "VAPFPEVF 17.5 µM, YFYPEL 0.03 µM, YQEPVLGPVRGPFPIIV 0.4 µM, normalized to PPIA and GAPDH and untreated cells, mean, n = 3–5", "experimental": "as §1"}, "[5]": {"system": "TAS2R46", "test": "RT-qPCR gene expression of TAS2R46 in HGT-1 cells", "conditions": "VAPFPEVF 17.5 µM, YFYPEL 0.03 µM, YQEPVLGPVRGPFPIIV 0.4 µM, normalized to PPIA and GAPDH and untreated cells, mean, n = 3–5", "experimental": "as §1"}, "[6]": {"system": "TAS2R7", "test": "RT-qPCR gene expression of TAS2R7 in HGT-1 cells", "conditions": "VAPFPEVF 17.5 µM, YFYPEL 0.03 µM, YQEPVLGPVRGPFPIIV 0.4 µM, normalized to PPIA and GAPDH and untreated cells, mean, n = 3–5", "experimental": "as §1"}, "[7]": {"system": "TAS2R20", "test": "RT-qPCR gene expression of TAS2R20 in HGT-1 cells", "conditions": "VAPFPEVF 17.5 µM, YFYPEL 0.03 µM, YQEPVLGPVRGPFPIIV 0.4 µM, normalized to PPIA and GAPDH and untreated cells, mean, n = 3–5", "experimental": "as §1"}, "[8]": {"system": "HGT-1 cells", "test": "Proton secretion assay (intracellular proton index IPX, SNARF-1-AM)", "experimental": "The measurement of proton secretion from HGT-1 cells represents a well-established model for the identification of bitter compounds. By affecting extraoral bitter taste receptors with bitter compounds, a modulatory effect on proton secretion can be measured. For this purpose, cells were washed with KRHB and incubated with 3 μM of the intracellular pH indicator 1,5 carboxy-seminaphto-rhodafluor acetoxymethyl ester (SNARF-1-AM) under standard conditions. After 30 min, the cells were washed again with KRHB and then incubated with casein (0.01–10 μM equimolar related to the relevant forms αS1- and β-casein), hydrolysate (0.01–10 μM), or the peptides (0.01–200 μM). […] All substances were dissolved and diluted in KRHB. 1 mM histamine was used as a positive control. Measurements were performed using FlexStation 3 (Molecular Devices, USA). The excitation wavelength was 488 nm, and the emission wavelengths were 580 and 640 nm. For calibration (pH range 7.0–8.0), the intracellular and extracellular pH was adjusted with 2 μM nigericin in potassium buffer (20 mM NaCl, 110 mM KCl, 1 mM CaCl2, 1 mM MgSO4, 18 mM D-glucose, and 20 mM HEPES). The intracellular proton index (IPX) was calculated as the log2 value of the 580/640 ratio and compared with cells without treatment. Negative values represent increased secretion of protons and therefore stimulation of mechanisms regulating gastric acid secretion in HGT-1 cells. In contrast, positive values represent an inhibition of secretion compared to the untreated control."}}, "note": "Several values for one entry are separate records, joined by “and”; a condition that tells them apart may be missing. Identical values can stand only once."}
{"sequence": "VAPFPEVF [bitter casein peptide αS1-CN25–32]", "values": [{"measurement": "change in gene expression of TAS2R16", "setting": "[1]; incubation 15 min", "value": 1.50, "unit": "fold change"}, {"measurement": "change in gene expression of TAS2R16", "setting": "[1]; incubation 30 min", "value": "3.70 fold change and 3.70 ± 0.97 fold change"}, {"measurement": "change in gene expression of TAS2R16", "setting": "[1]; incubation 60 min", "value": 1.65, "unit": "fold change"}, {"measurement": "change in gene expression of TAS2R16", "setting": "[1]; incubation 120 min", "value": 2.88, "unit": "fold change"}, {"measurement": "change in gene expression of TAS2R8", "setting": "[2]; incubation 15 min", "value": 1.24, "unit": "fold change"}, {"measurement": "change in gene expression of TAS2R8", "setting": "[2]; incubation 30 min", "value": 2.25, "unit": "fold change"}, {"measurement": "change in gene expression of TAS2R8", "setting": "[2]; incubation 60 min", "value": 1.34, "unit": "fold change"}, {"measurement": "change in gene expression of TAS2R8", "setting": "[2]; incubation 120 min", "value": 2.04, "unit": "fold change"}, {"measurement": "change in gene expression of TAS2R19", "setting": "[3]; incubation 15 min", "value": 0.66, "unit": "fold change"}, {"measurement": "change in gene expression of TAS2R19", "setting": "[3]; incubation 30 min", "value": 1.22, "unit": "fold change"}, {"measurement": "change in gene expression of TAS2R19", "setting": "[3]; incubation 60 min", "value": 0.69, "unit": "fold change"}, {"measurement": "change in gene expression of TAS2R19", "setting": "[3]; incubation 120 min", "value": 1.25, "unit": "fold change"}, {"measurement": "change in gene expression of TAS2R30", "setting": "[4]; incubation 15 min", "value": 0.56, "unit": "fold change"}, {"measurement": "change in gene expression of TAS2R30", "setting": "[4]; incubation 30 min", "value": 1.53, "unit": "fold change"}, {"measurement": "change in gene expression of TAS2R30", "setting": "[4]; incubation 60 min", "value": 0.75, "unit": "fold change"}, {"measurement": "change in gene expression of TAS2R30", "setting": "[4]; incubation 120 min", "value": 1.62, "unit": "fold change"}, {"measurement": "change in gene expression of TAS2R46", "setting": "[5]; incubation 15 min", "value": 0.62, "unit": "fold change"}, {"measurement": "change in gene expression of TAS2R46", "setting": "[5]; incubation 30 min", "value": 1.47, "unit": "fold change"}, {"measurement": "change in gene expression of TAS2R46", "setting": "[5]; incubation 60 min", "value": 0.85, "unit": "fold change"}, {"measurement": "change in gene expression of TAS2R46", "setting": "[5]; incubation 120 min", "value": 1.95, "unit": "fold change"}, {"measurement": "change in gene expression of TAS2R7", "setting": "[6]; incubation 15 min", "value": 1.20, "unit": "fold change"}, {"measurement": "change in gene expression of TAS2R7", "setting": "[6]; incubation 30 min", "value": 0.71, "unit": "fold change"}, {"measurement": "change in gene expression of TAS2R7", "setting": "[6]; incubation 60 min", "value": 1.05, "unit": "fold change"}, {"measurement": "change in gene expression of TAS2R7", "setting": "[6]; incubation 120 min", "value": 0.62, "unit": "fold change"}, {"measurement": "change in gene expression of TAS2R20", "setting": "[7]; incubation 15 min", "value": 0.70, "unit": "fold change"}, {"measurement": "change in gene expression of TAS2R20", "setting": "[7]; incubation 30 min", "value": 1.33, "unit": "fold change"}, {"measurement": "change in gene expression of TAS2R20", "setting": "[7]; incubation 60 min", "value": 0.87, "unit": "fold change"}, {"measurement": "change in gene expression of TAS2R20", "setting": "[7]; incubation 120 min", "value": 1.78, "unit": "fold change"}, {"measurement": "ΔIPX (change in intracellular proton index vs untreated cells)", "setting": "[8]; 10 µM, 10 min incubation in KRHB, negative = stimulated, positive = inhibited proton secretion, mean ± SEM, n = 4–8", "value": "−0.286 ± 0.037"}, {"measurement": "proton secretion with peptide alone compared to untreated control cells", "setting": "[8]; VAPFPEVF 17.5 µM, YFYPEL 0.03 µM, YQEPVLGPVRGPFPIIV 0.4 µM, 10 min, p < 0.01", "value": "increased proton secretion"}, {"measurement": "concentration with the lowest IPX value (minimum of curve fit; highest impact on secretory activity)", "setting": "[8]; curve fit over 0.01–200 µM proton secretion profile", "value": 17.5, "unit": "µM"}, {"measurement": "ΔIPX on co-incubation with probenecid", "setting": "[8]; peptide (VAPFPEVF 17.5 µM, YFYPEL 0.03 µM, YQEPVLGPVRGPFPIIV 0.4 µM) + 1 mM probenecid, 10 min, vs untreated cells, mean ± SEM", "value": "+0.043 ± 0.031"}]}
